From patent US12325694B2, “Co-crystalline form of efinaconazole and method for preparing the same” (Daebong Ls Co., Ltd., priority 2019, dated 2025)

Test: Stability test: HPLC purity after standing in solution at different temperatures
Assay type: physicochemical
Conditions: Solution (10%)
Procedure: The stabilities of the co-crystals of efinaconazole to temperature and a solution were evaluated and compared by the following experimental method.

## C=C1CCN([C@H](C)[C@](O)(Cn2cncn2)c2ccc(F)cc2F)CC1 [Efinaconazole, efinaconazole]
65 °C (oven), after 1 week
  HPLC (%): 99.55%
  Related substances (%): 0.45%
65 °C (oven), after 2 weeks
  HPLC (%): 99.46%
  Related substances (%): 0.54%
65 °C (oven), after 4 weeks
  HPLC (%): 98.47%
  Related substances (%): 1.53%
Room temp., after 1 week
  HPLC (%): 99.73%
  Related substances (%): 0.27%
Room temp., after 2 weeks
  HPLC (%): 99.61%
  Related substances (%): 0.39%
Room temp., after 4 weeks
  HPLC (%): 99.60%
  Related substances (%): 0.40%
